Assay results as given in patent US7449447B2, “Peptidomimetic NS3-serine protease inhibitors of hepatitis C virus” (priority 2003, dated 2008).

Target: T1, HCV NS3/NS4a serine protease (Hepatitis C virus genotype 1b, UniProt P26663)
T1 construct: amino terminus of the NS3 protease domain (amino acids 3-181) with a tetrapeptide linker; made in house; host or cells: E. coli
Assay: Spectrophotometric assay for HCV protease inhibitory activity (chromogenic ester substrates)
Format: biochemical, hepatitis C virus (strain 1b)
Conditions: single chain NS4A21-32-GSGS-NS3 3-181 protease, 30° C., pH 6.5
Method in brief: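 Single-chain NS4A(21-32)-GSGS-NS3(3-181) protease (genotype 1b) from E. coli was used at 1.3 nM in 25 mM MOPS pH 6.5 with 300 mM NaCl, 30 °C and 4% DMSO. Chromogenic ester substrate cleavage was followed as PAP release at 370 nm over 60 min. Ki was derived from vo/vi versus [I] plots assuming competitive inhibition.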

T1 sequence (P26663 1013-1207, looked up, natural form): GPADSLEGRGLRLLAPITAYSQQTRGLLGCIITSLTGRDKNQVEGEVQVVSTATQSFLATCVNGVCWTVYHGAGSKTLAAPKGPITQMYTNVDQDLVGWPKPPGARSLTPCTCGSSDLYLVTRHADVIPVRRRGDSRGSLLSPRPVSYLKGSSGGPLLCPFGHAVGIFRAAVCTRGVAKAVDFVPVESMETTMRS

## CCOc1cc(CCNC(=O)[C@H](CC(F)F)NC(=O)[C@@H]2[C@@H]3[C@H](CN2C(=O)[C@@H](NC(=O)N[C@H](CN(C)S(C)(=O)=O)C(C)(C)C)C(C)(C)C)C3(C)C)ccc1OC [Example 286]
Ki, Table 3, rating
  Ki: < 100 nM

## CC(C)(C)[C@H](NC(=O)N[C@H](CN1CCCS1(=O)=O)C(C)(C)C)C(=O)N1C[C@H]2[C@@H](C1C(=O)NC(CC(F)F)C(=O)NCCc1ccc(C(N)=O)cc1Cl)C2(C)C (stereo partly shown) [Example 111]
Ki, Table 1
  Ki: 42 nM

## COC(=O)c1ccc(CCNC(=O)[C@H](CC(F)F)NC(=O)[C@@H]2C3C(CN2C(=O)[C@@H](NC(=O)N[C@H](CN(C)S(C)(=O)=O)C(C)(C)C)C2CCCCC2)C3(C)C)cc1 (stereo partly shown) [Example 101]
Ki, Table 1
  Ki: 11 nM

## CC1(NC(=O)N[C@H](C(=O)N2C[C@H]3[C@@H]([C@H]2C(=O)NC(CC(F)F)C(=O)O)C3(C)C)C(C)(C)C)CCCCC1 (stereo partly shown) [Example 156]
Ki Rating, Table 2
  Ki: > 500 nM

## CCOc1ccccc1CCNC(=O)[C@H](CC(F)F)NC(=O)[C@@H]1[C@@H]2[C@H](CN1C(=O)[C@@H](NC(=O)N[C@H](CN(C)S(C)(=O)=O)C(C)(C)C)C(C)(C)C)C2(C)C [Example 273]
Ki, Table 3, rating
  Ki: < 100 nM

## CN(C[C@@H](NC(=O)N[C@H](C(=O)N1C[C@H]2[C@@H]([C@H]1C(=O)N[C@@H](CC(F)F)C(=O)NCCC#N)C2(C)C)C(C)(C)C)C(C)(C)C)S(C)(=O)=O [Example 204]
Ki, Table 3, rating
  Ki: > 500 nM

## CN(C[C@@H](NC(=O)N[C@H](C(=O)N1C[C@H]2[C@@H]([C@H]1C(=O)NC(CC(F)F)C(=O)NCCc1ccc(C(N)=O)cc1)C2(C)C)C(C)(C)C)C(C)(C)C)S(C)(=O)=O (stereo partly shown) [Example 128]
Ki Rating, Table 2
  Ki: 100 to 500 nM
